In BindingDB's records for doi:10.1021/jm010246u (University of Texas At Austin, 2001):

Columns and labels:
[1] = target: T1, Telomerase reverse transcriptase (Homo sapiens, UniProt O14746); assay: Apparent telomerase inhibition by G-quadruplex mechanism
[2] = target: T1, Telomerase reverse transcriptase; assay: Apparent telomerase inhibition by primer mechanism

T1 sequence (O14746 whole entry): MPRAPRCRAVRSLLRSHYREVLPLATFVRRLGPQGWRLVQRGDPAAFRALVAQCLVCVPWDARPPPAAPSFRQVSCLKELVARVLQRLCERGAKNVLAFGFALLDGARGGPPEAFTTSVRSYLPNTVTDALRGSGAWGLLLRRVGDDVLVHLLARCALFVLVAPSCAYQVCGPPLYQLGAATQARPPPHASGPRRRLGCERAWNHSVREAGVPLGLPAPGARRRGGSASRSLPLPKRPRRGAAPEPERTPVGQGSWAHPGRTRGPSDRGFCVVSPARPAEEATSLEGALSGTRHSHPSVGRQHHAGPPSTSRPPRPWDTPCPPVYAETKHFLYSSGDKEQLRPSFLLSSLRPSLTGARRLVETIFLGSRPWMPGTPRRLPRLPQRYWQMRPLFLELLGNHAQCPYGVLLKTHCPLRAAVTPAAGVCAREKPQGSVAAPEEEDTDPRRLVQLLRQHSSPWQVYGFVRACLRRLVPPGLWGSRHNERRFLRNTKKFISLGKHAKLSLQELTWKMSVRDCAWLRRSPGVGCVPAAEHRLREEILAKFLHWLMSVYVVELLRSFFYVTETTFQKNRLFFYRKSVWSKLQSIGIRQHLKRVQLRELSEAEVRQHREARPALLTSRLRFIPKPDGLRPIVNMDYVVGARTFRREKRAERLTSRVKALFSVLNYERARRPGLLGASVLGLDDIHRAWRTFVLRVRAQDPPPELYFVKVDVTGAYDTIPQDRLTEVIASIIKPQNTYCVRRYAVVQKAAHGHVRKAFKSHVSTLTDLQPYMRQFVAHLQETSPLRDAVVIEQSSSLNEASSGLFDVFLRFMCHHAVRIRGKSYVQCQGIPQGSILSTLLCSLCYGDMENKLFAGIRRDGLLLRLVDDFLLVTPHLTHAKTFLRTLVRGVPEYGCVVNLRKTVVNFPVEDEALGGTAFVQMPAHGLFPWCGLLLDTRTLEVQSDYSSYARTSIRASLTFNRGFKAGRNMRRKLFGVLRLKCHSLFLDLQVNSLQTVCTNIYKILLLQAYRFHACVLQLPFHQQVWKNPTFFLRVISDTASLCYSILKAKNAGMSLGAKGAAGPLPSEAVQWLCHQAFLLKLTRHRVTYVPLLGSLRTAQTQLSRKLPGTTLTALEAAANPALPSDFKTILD

SMILES	IC50 [1]	IC50 [2]
C[n+]1ccc(-c2c3nc(c(-c4cc[n+](C)cc4)c4ccc([nH]4)c(-c4cc[n+](C)cc4)c4nc(c(-c5cc[n+](C)cc5)c5ccc2[nH]5)C=C4)C=C3)cc1	8 µM	
C[n+]1ccc(-c2c3nc(c(-c4cccc([N+](=O)[O-])c4)c4nc(c(-c5cc[n+](C)cc5)c5ccc([nH]5)c(-c5cccc([N+](=O)[O-])c5)c5ccc2[nH]5)C=C4)C=C3)cc1	25 µM	
C[n+]1ccc(-c2c3nc(c(-c4cc[n+](C)cc4)c4ccc([nH]4)c(-c4cccc([N+](=O)[O-])c4)c4ccc([nH]4)c(-c4cc[n+](C)cc4)c4nc2C=C4)C=C3)cc1	12 µM	
CC[n+]1ccc(-c2c3nc(c(-c4cc[n+](CC)cc4)c4ccc([nH]4)c(-c4cc[n+](CC)cc4)c4ccc([nH]4)c(-c4cc[n+](CC)cc4)c4nc2C=C4)C=C3)cc1	25 µM	
C[n+]1cc(-c2ccco2)cc(-c2c3nc(c(-c4cc(-c5ccco5)c[n+](C)c4)c4ccc([nH]4)c(-c4cc(-c5ccco5)c[n+](C)c4)c4ccc([nH]4)c(-c4cc(-c5ccco5)c[n+](C)c4)c4nc2C=C4)C=C3)c1 [5,10,15,20-tetra[5-(2-furfuryl)-N-methyl-3-pyridyl]porphyrin chloride]		8 µM
